Assay results taken from patent US10738028B2, “Spiro three-membered ring, spiro five-membered ring peptide deformylase inhibitor and use thereof in antibacteria and anti-tumor” (priority 2016, dated 2020).
≈ marks a conversion by molar mass, not a printed value.

What was measured:
Assay type in all cases: cell-based
[1] = test system: Enterococcus faecalis (EFA); assay: MIC, two-fold agar dilution (CLSI), clinical isolates
Source text: (§1) 1. The invention adopts the two-fold agar dilution method recommended by the operating procedure of antimicrobial susceptibility testing set by American Clinical and Laboratory Standards Institute (CLSI) to determine the Minimum Inhibitory Concentration (MIC) of the test samples against the tested strains.

[2] = test system: Enterococcus faecium (EFM); assay: as above
Source text: as §1

[3] = test system: Escherichia coli (including ESBLs, non-ESBLs); assay: as above
Source text: as §1

[4] = test system: Moraxella catarrhalis (BCA); assay: as above; details: for Anti-bacterial activity (MIC), strain BCA 14-10: clinical isolate BCA 14-10
Source text: as §1

[5] = test system: Streptococcus pneoumoniae (SPN); assay: as above
Source text: as §1

[6] = test system: methicillin-resistant Staphylococcus aureus (MRSA); assay: as above
Source text: as §1

[7] = test system: methicillin-resistant Staphylococcus epidermidis (MRSE); assay: as above
Source text: as §1

[8] = test system: methicillin-sensitive Staphylococcus aureus (MSSA); assay: as above
Source text: as §1

[9] = test system: methicillin-sensitive Staphylococcus epidermidis (MSSE); assay: as above
Source text: as §1

[10] = test system: HCT-116 colorectal cancer cell line; assay: CCK-8 proliferation inhibition; details: Homo sapiens, HCT-116, 72 h, concentration of 30 μM; 72 hours; CCK-8; read-out: HCT116 inhibition rate/%
Outline: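 Growth inhibition is read by CCK-8 (1:10 dilution) after 72 h of compound exposure. HCT-116 cells grow in McCoy's 5A containing 10% newborn bovine serum at 2000 cells/well, with 1‰ DMSO as vehicle control.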

O=CN(O)C[C@@H](CC1CCCC1)C(=O)N1CC2(CC2)C[C@H]1C(=O)Nc1cc[nH]n1 [Example 31, (S)-5-((R)-3-cyclopentyl-2-((N-hydroxyformamido)methyl)propionyl)-N-(1H-pyrazol-3-yl)-5-azaspiro[2.4]heptane-6-carboxamide]
MIC (anti-bacterial activity) ([1]; strain EFA 15-1): 32 µg/mL (≈ 79.3 µM)
MIC (anti-bacterial activity) ([1]; strain EFA 15-2): 32 µg/mL (≈ 79.3 µM)
MIC (anti-bacterial activity) ([1]; strain EFA 15-3): 32 µg/mL (≈ 79.3 µM)
MIC (anti-bacterial activity) ([1]; strain EFA 15-4): 32 µg/mL (≈ 79.3 µM)
MIC (anti-bacterial activity) ([1]; strain EFA 15-5): 32 µg/mL (≈ 79.3 µM)
MIC (anti-bacterial activity) ([1]; strain EFA 15-6): 32 µg/mL (≈ 79.3 µM)
MIC (anti-bacterial activity) ([1]; strain EFA 15-9): 32 µg/mL (≈ 79.3 µM)
MIC (anti-bacterial activity) ([2]; strain EFM 15-1): 4 µg/mL (≈ 9.91 µM)
MIC (anti-bacterial activity) ([2]; strain EFM 15-2): 4 µg/mL (≈ 9.91 µM)
MIC (anti-bacterial activity) ([2]; strain EFM 15-3): 2 µg/mL (≈ 4.96 µM)
MIC (anti-bacterial activity) ([2]; strain EFM 15-4): 4 µg/mL (≈ 9.91 µM)
MIC (anti-bacterial activity) ([2]; strain EFM 15-5): 2 µg/mL (≈ 4.96 µM)
MIC (anti-bacterial activity) ([2]; strain EFM 15-6): 4 µg/mL (≈ 9.91 µM)
MIC (anti-bacterial activity) ([3]; strain ECO+ 15-1): 32 µg/mL (≈ 79.3 µM)
MIC (anti-bacterial activity) ([3]; strain ECO+ 15-2): > 32 µg/mL
MIC (anti-bacterial activity) ([3]; strain ECO+ 15-3): > 32 µg/mL
MIC (anti-bacterial activity) ([3]; strain ECO+ 15-4): > 32 µg/mL
MIC (anti-bacterial activity) ([3]; strain ECO− 15-1): > 32 µg/mL
MIC (anti-bacterial activity) ([3]; strain ECO− 15-2): > 32 µg/mL
MIC (anti-bacterial activity) ([3]; strain ECO− 15-3): > 32 µg/mL
MIC (anti-bacterial activity) ([3]; strain ECO− 15-4): > 32 µg/mL
Anti-bacterial activity (MIC), strain BCA 14-10 [4]: 2 µg/mL
MIC (anti-bacterial activity) ([4]; strain BCA 14-1): 4 µg/mL (≈ 9.91 µM)
MIC (anti-bacterial activity) ([4]; strain BCA 14-4): 16 µg/mL (≈ 39.7 µM)
MIC (anti-bacterial activity) ([4]; strain BCA 14-5): 2 µg/mL (≈ 4.96 µM)
MIC (anti-bacterial activity) ([4]; strain BCA 14-6): 8 µg/mL (≈ 19.8 µM)
MIC (anti-bacterial activity) ([4]; strain BCA 14-7): 2 µg/mL (≈ 4.96 µM)
MIC (anti-bacterial activity) ([4]; strain BCA 14-8): 4 µg/mL (≈ 9.91 µM)
MIC (anti-bacterial activity) ([5]; strain SPN 16-2): 1 µg/mL (≈ 2.48 µM)
MIC (anti-bacterial activity) ([5]; strain SPN 16-4): 16 µg/mL (≈ 39.7 µM)
MIC (anti-bacterial activity) ([6]; strain MRSA 15-1): 2 µg/mL (≈ 4.96 µM)
MIC (anti-bacterial activity) ([6]; strain MRSA 15-2): 2 µg/mL (≈ 4.96 µM)
MIC (anti-bacterial activity) ([6]; strain MRSA 15-3): 2 µg/mL (≈ 4.96 µM)
MIC (anti-bacterial activity) ([6]; strain MRSA 15-4): 2 µg/mL (≈ 4.96 µM)
MIC (anti-bacterial activity) ([7]; strain MRSE 15-1): 0.5 µg/mL (≈ 1.24 µM)
MIC (anti-bacterial activity) ([7]; strain MRSE 15-2): 2 µg/mL (≈ 4.96 µM)
MIC (anti-bacterial activity) ([7]; strain MRSE 15-3): 2 µg/mL (≈ 4.96 µM)
MIC (anti-bacterial activity) ([7]; strain MRSE 15-7): 2 µg/mL (≈ 4.96 µM)
MIC (anti-bacterial activity) ([8]; strain MSSA 15-3): 2 µg/mL (≈ 4.96 µM)
MIC (anti-bacterial activity) ([8]; strain MSSA 15-4): 2 µg/mL (≈ 4.96 µM)
MIC (anti-bacterial activity) ([8]; strain MSSA 15-5): 2 µg/mL (≈ 4.96 µM)
MIC (anti-bacterial activity) ([8]; strain MSSA 15-6): 2 µg/mL (≈ 4.96 µM)
MIC (anti-bacterial activity) ([9]; strain MSSE 15-3): 2 µg/mL (≈ 4.96 µM)
MIC (anti-bacterial activity) ([9]; strain MSSE 15-4): 2 µg/mL (≈ 4.96 µM)
MIC (anti-bacterial activity) ([9]; strain MSSE 15-5): 2 µg/mL (≈ 4.96 µM)
MIC (anti-bacterial activity) ([9]; strain MSSE 15-6): 2 µg/mL (≈ 4.96 µM)
inhibition at 30 µM [10]: 19%

O=CN(O)C[C@@H](CC1CCCC1)C(=O)N1CC2(CC2)C[C@H]1C(=O)N1CCS(=O)(=O)CC1 [Example 35, N—((R)-2-(cyclopentylmethyl)-3-((S)-6-(1,1-dioxythiomorpholine-4-carbonyl)-5-azaspiro[2.4]heptane-5-yl)-3-propylcarbonyl)-N-hydroxyformamide]
MIC (anti-bacterial activity) ([1]; strain EFA 15-1): 32 µg/mL (≈ 70.2 µM)
MIC (anti-bacterial activity) ([1]; strain EFA 15-2): 32 µg/mL (≈ 70.2 µM)
MIC (anti-bacterial activity) ([1]; strain EFA 15-3): 32 µg/mL (≈ 70.2 µM)
MIC (anti-bacterial activity) ([1]; strain EFA 15-4): 32 µg/mL (≈ 70.2 µM)
MIC (anti-bacterial activity) ([1]; strain EFA 15-5): 32 µg/mL (≈ 70.2 µM)
MIC (anti-bacterial activity) ([1]; strain EFA 15-6): 32 µg/mL (≈ 70.2 µM)
MIC (anti-bacterial activity) ([1]; strain EFA 15-9): 32 µg/mL (≈ 70.2 µM)
MIC (anti-bacterial activity) ([2]; strain EFM 15-1): 16 µg/mL (≈ 35.1 µM)
MIC (anti-bacterial activity) ([2]; strain EFM 15-2): 16 µg/mL (≈ 35.1 µM)
MIC (anti-bacterial activity) ([2]; strain EFM 15-3): 16 µg/mL (≈ 35.1 µM)
MIC (anti-bacterial activity) ([2]; strain EFM 15-4): 16 µg/mL (≈ 35.1 µM)
MIC (anti-bacterial activity) ([2]; strain EFM 15-5): 16 µg/mL (≈ 35.1 µM)
MIC (anti-bacterial activity) ([2]; strain EFM 15-6): 16 µg/mL (≈ 35.1 µM)
MIC (anti-bacterial activity) ([3]; strain ECO+ 15-1): 32 µg/mL (≈ 70.2 µM)
MIC (anti-bacterial activity) ([3]; strain ECO+ 15-2): > 32 µg/mL
MIC (anti-bacterial activity) ([3]; strain ECO+ 15-3): > 32 µg/mL
MIC (anti-bacterial activity) ([3]; strain ECO+ 15-4): > 32 µg/mL
MIC (anti-bacterial activity) ([3]; strain ECO− 15-1): > 32 µg/mL
MIC (anti-bacterial activity) ([3]; strain ECO− 15-2): > 32 µg/mL
MIC (anti-bacterial activity) ([3]; strain ECO− 15-3): > 32 µg/mL
MIC (anti-bacterial activity) ([3]; strain ECO− 15-4): > 32 µg/mL
Anti-bacterial activity (MIC), strain BCA 14-10 [4]: 32 µg/mL
MIC (anti-bacterial activity) ([4]; strain BCA 14-1): 32 µg/mL (≈ 70.2 µM)
MIC (anti-bacterial activity) ([4]; strain BCA 14-4): 32 µg/mL (≈ 70.2 µM)
MIC (anti-bacterial activity) ([4]; strain BCA 14-5): 16 µg/mL (≈ 35.1 µM)
MIC (anti-bacterial activity) ([4]; strain BCA 14-6): 32 µg/mL (≈ 70.2 µM)
MIC (anti-bacterial activity) ([4]; strain BCA 14-7): 32 µg/mL (≈ 70.2 µM)
MIC (anti-bacterial activity) ([4]; strain BCA 14-8): 32 µg/mL (≈ 70.2 µM)
MIC (anti-bacterial activity) ([5]; strain SPN 16-2): 16 µg/mL (≈ 35.1 µM)
MIC (anti-bacterial activity) ([5]; strain SPN 16-4): 32 µg/mL (≈ 70.2 µM)
MIC (anti-bacterial activity) ([6]; strain MRSA 15-1): 16 µg/mL (≈ 35.1 µM)
MIC (anti-bacterial activity) ([6]; strain MRSA 15-2): 32 µg/mL (≈ 70.2 µM)
MIC (anti-bacterial activity) ([6]; strain MRSA 15-3): 16 µg/mL (≈ 35.1 µM)
MIC (anti-bacterial activity) ([6]; strain MRSA 15-4): 32 µg/mL (≈ 70.2 µM)
MIC (anti-bacterial activity) ([7]; strain MRSE 15-1): 16 µg/mL (≈ 35.1 µM)
MIC (anti-bacterial activity) ([7]; strain MRSE 15-2): 32 µg/mL (≈ 70.2 µM)
MIC (anti-bacterial activity) ([7]; strain MRSE 15-3): 32 µg/mL (≈ 70.2 µM)
MIC (anti-bacterial activity) ([7]; strain MRSE 15-7): 32 µg/mL (≈ 70.2 µM)
MIC (anti-bacterial activity) ([8]; strain MSSA 15-3): 32 µg/mL (≈ 70.2 µM)
MIC (anti-bacterial activity) ([8]; strain MSSA 15-4): 32 µg/mL (≈ 70.2 µM)
MIC (anti-bacterial activity) ([8]; strain MSSA 15-5): 32 µg/mL (≈ 70.2 µM)
MIC (anti-bacterial activity) ([8]; strain MSSA 15-6): 32 µg/mL (≈ 70.2 µM)
MIC (anti-bacterial activity) ([9]; strain MSSE 15-3): 32 µg/mL (≈ 70.2 µM)
MIC (anti-bacterial activity) ([9]; strain MSSE 15-4): 32 µg/mL (≈ 70.2 µM)
MIC (anti-bacterial activity) ([9]; strain MSSE 15-5): 32 µg/mL (≈ 70.2 µM)
MIC (anti-bacterial activity) ([9]; strain MSSE 15-6): 32 µg/mL (≈ 70.2 µM)
inhibition at 30 µM [10]: -1%
